Test [1] concerns environmental 2,5-diketo-D-gluconic acid reductase DKGRc (pI-14, SEQ ID NO: 8) variant R238Q. The experiment in a line: Kinetic parameters of purified R238Q mutant of DKGRc. Type of test: biochemical, environmental DNA (uncultured, soil). An excerpt: Site specific mutants of DKGRc were constructed by overlap extension PCR. […] The oligonucleotides:
were complementary to the antisense and sense strands, respectively, and introduced the changes K232Q and R238Q, respectively. The bases that differ from the native sequence are underlined. Each oligonucleotide was paired with the appropriate adapter primer (i.e. primers for amplifying the gene for insertion into expression vectors) in PCR's to generate fragments of the DKGRc gene that incorporated one of the two changes. Primers were also synthesized that matched the native DNA sequence. When used with the appropriate adapter primer, these generated an unmodified fragment of the gene. […] The amplification of the full-length genes was driven by addition of both adapter primers.

In test [2] the test system is environmental 2,5-diketo-D-gluconic acid reductase (form not stated). To be noted: read-out: apparent Km of stimulation by inorganic phosphate, NADH-dependent activity.

Data on four compounds can be found in patent US8597901B2, “2,5-diketo-L-gluconic acid reductases and methods of use” (Danisco US Inc., priority 2000, dated 2013).

Like-named read-outs stand apart in the source and are kept apart here.

A word on the Km: it is the concentration of substrate that gives half-maximal velocity. For `O=C(O)C(=O)[C@@H](O)[C@H](O)C(=O)CO` [DKG, 2,5-diketo-D-gluconic acid], the “Km for 2,5-diketo-D-gluconic acid, increase over native” value in test [1] (R238Q versus native DKGRc) amounted to 7.7 fold. Besides, in test [1] (R238Q, read-out: Km for 2,5-diketo-D-gluconic acid), the Michaelis constant (Km) stood at 440 µM.

Consider `NC(=O)C1=CN([C@@H]2O[C@H](COP(=O)(O)OP(=O)(O)OC[C@H]3O[C@@H](n4cnc5c(N)ncnc54)[C@H](O)[C@@H]3O)[C@@H](O)[C@H]2O)C=CC1` [NADH], for which, in test [1] (R238Q versus native DKGRc), the “Km for NADH, effect of mutation” value is reported as “not affected by the mutation” and the “catalytic efficiency with NADH as cosubstrate, increase over native” value turned out to be 7 fold. The kcat in test [1] (R238Q, NADH as cosubstrate) is 12 S^−1. For the same compound, the Michaelis constant (Km) in test [1] (R238Q, NADH as cosubstrate, read-out: Km, nadh) is 1900 µM.

With `NC(=O)C1=CN([C@@H]2O[C@H](COP(=O)(O)OP(=O)(O)OC[C@H]3O[C@@H](n4cnc5c(N)ncnc54)[C@H](OP(=O)(O)O)[C@@H]3O)[C@@H](O)[C@H]2O)C=CC1` [NADPH], the “Km for NADPH, increase over native” value in test [1] (R238Q versus native DKGRc) was 18 fold. Also, the “kcat, increase over native” value in test [1] (R238Q versus native DKGRc, NADPH) was determined as 3.5 fold. Also, the Km in test [1] (read-out: Km, nadph, R238Q, NADPH as cosubstrate) was 55 µM.

On to `O=P(O)(O)O` [Pi], for which the Michaelis-Menten constant (Km) in test [2] turned out to be 1300 µM.
